Source: patent publication US20200055817A1 (AbbVie Deutschland GmbH & Co. KG, priority 2016, published 2020)
Counter-ions that a name gives are not always drawn.

Assays:
Type in all cases: cell-based
[1] = target: T1, human EDG8 (S1PR5) receptor (Homo sapiens, UniProt Q9H228); assay: Aequorin assay, agonist potency, CHO-A21-EDG8#12 cells; conditions: agonist mode, aequorin luminescence; read-out: S1P5 EC50 range #
T1 construct: carries the transgenes human EDG8 (S1PR5) receptor (Acession number NP_110387.1); expressed in transfected cells; host or cells: CHO-A21-EDG8#12 (CHO clone co-expressing mitochondrial aequorin and chimaeric Gaqi5)
T1 sequence (Q9H228 whole entry): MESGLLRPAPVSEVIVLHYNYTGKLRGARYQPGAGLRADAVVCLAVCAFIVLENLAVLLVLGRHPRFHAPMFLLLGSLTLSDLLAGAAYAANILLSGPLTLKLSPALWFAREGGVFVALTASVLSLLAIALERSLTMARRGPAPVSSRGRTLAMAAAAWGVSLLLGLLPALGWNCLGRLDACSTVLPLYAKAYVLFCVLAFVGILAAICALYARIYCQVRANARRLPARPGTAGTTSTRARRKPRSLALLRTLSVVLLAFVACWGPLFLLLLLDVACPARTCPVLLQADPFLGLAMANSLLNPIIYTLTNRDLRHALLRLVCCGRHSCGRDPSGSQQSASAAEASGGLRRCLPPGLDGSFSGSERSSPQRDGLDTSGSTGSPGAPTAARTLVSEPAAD
Summary of the method: (§1)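 CHO cells coexpressing receptor, mitochondrial aequorin and Gαqi5 (S1P3 pool: GNA16) were loaded overnight at RT with 5 μM coelenterazine h in 0.1% fatty-acid-free BSA buffer. Cells were injected onto compound, luminescence recorded 90 s and integrated, normalised to digitonin or 20 μM ATP; sigmoidal fit.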

[2] = target: T2, human EDG1 (S1PR1) receptor (Homo sapiens, UniProt P21453); assay: Aequorin assay, agonist potency, CHO-A21-Edg1#17 cells; conditions: agonist mode, aequorin luminescence; read-out: S1P1 EC50
T2 construct: expressed in transfected cells; host or cells: CHO-A21-Edg1#17 (CHO clone co-expressing mitochondrial aequorin and chimaeric Gaqi5)
T2 sequence (P21453 whole entry): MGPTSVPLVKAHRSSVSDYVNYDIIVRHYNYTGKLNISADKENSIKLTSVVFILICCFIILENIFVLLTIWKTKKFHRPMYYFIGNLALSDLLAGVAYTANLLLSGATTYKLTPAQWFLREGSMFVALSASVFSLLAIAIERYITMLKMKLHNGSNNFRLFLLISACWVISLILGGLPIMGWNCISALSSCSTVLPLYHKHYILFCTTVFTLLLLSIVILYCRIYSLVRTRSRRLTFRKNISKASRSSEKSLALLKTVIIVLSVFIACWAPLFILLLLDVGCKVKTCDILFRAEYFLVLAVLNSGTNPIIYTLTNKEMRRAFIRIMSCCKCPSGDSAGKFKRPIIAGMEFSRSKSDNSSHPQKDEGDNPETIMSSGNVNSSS
Summary of the method: as §1

[3] = target: T3, human EDG3 (S1PR3) receptor (Homo sapiens, UniProt Q99500); assay: Aequorin assay, agonist potency, CHO-A2-S1P3 Mix cells; conditions: agonist mode, aequorin luminescence
T3 construct: expressed in transfected cells; host or cells: CHO-A2-S1P3 Mix (CHO cell pool co-expressing mitochondrial aequorin and GNA16)
T3 sequence (Q99500 whole entry): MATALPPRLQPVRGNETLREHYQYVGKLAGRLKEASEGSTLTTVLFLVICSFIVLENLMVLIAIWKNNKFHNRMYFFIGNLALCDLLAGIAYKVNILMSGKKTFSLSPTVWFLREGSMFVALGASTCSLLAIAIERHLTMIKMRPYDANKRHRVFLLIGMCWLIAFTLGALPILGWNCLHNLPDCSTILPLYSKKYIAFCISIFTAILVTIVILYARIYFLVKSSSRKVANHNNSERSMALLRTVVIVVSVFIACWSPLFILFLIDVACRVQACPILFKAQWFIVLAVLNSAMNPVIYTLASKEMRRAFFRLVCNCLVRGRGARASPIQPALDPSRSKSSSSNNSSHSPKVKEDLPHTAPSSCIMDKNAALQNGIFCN
Procedure: Agonistic activity was measured as described below.
Cell clone CHO-A21-Edg1#17 carries the transgenes human EDG1 (S1PR1) receptor (Accession number NP_001391.2), mitochondrially targeted Aequorin (active part corresponds to accession number 1SL8_A) and chimaeric Gaqi5=Gaq modified with the 5 C-terminal amino-acids replaced with those of the Gai protein (DCGLF). CHO-A2-S1P3 Mix is a cell pool ectopically expressing human EDG3 (S1PR3) receptor (Accession number NP_005217.2) mitochondrially targeted Aequorin (active part has a sequence similar to accession number AY601106.1) and GNA16 (Accession number NP_002059.3). Cell clone CHO-A21-EDG8#12 carries the transgenes human EDG8 (S1PR5) receptor (Acession number NP_110387.1), mitochondrially expressed Aequorin (active part corresponds to accession number 1SL8_A) and chimaeric Gaqi5 (Gaq modified to present the 5 last amino-acids of the Gai protein “DCGLF”; see above). Cells are grown to mid-log phase in culture medium (HAM's F12, 10% FBS, 100 IU/mL penicillin, 100 μg/mL streptomycin, 250 μg/mL Zeocin, 400 μg/mL G418). 18 hours prior to frozen cells preparation, the medium is changed to remove the antibiotics.
18 hours prior to the test, vials of frozen cells are quickly thawed in a 37° C. water bath, cells are recovered by centrifugation and resuspended in assay buffer (DMEM/HAM's F12 with HEPES, without phenol red+0.1% fatty acid-free BSA). Cells are gently agitated in suspension overnight at RT in presence of 5 μM of Coelenterazine h (Molecular Probes). On the day of the test, cells are diluted to their final working concentrations in assay buffer and agitated in suspension for 1 h at RT. Cells are then placed in the luminescence reader (Hamamatsu Functional Drug Screening System 6000, FDSS6000). During cells incubation, compounds are prepared in 100% DMSO, and subsequently diluted in assay buffer. Compounds are then dispensed in the assay plate (black, clear-bottom, 384-well plate). After binding of agonists to the human S1P receptor the intracellular calcium concentration increases and binding of calcium to the Aequorin/Coelenterazine complex leads to an oxidation reaction of coelenterazine, which results in the production of Aequorin, coelenteramide, CO2 and light (Dmax 469 nm). The luminescent response is dependent on the agonist concentration. For agonist testing, 30 μL of cell suspension are injected on 30 μL of test compound or reference agonist in the assay plate. The resulting emission of light is recorded for 90 seconds using the FDSS6000. Dose response curves with the reference compounds are performed before testing the compounds. S1P is the reference agonist and JTE-013 the reference antagonist for S1P2.
Luminescence data are integrated over the reading interval for agonist and antagonist modes. To standardize the emission of recorded light (determination of the “100% signal”) across plates and across different experiments, some of the wells contain 100 μM digitonin or a saturating concentration of ATP (20 μM). Plates also contain the reference agonist at a concentration equivalent to the EC80 obtained during the test validation and the EC100. Dose-response data from test compounds were analyzed with XLfit (IDBS) software using nonlinear regression applied to a sigmoidal dose-response model and the following equation: […]

S1P4 = target: T4, S1P4 (Homo sapiens, UniProt O95977); assay: Aequorin assay, agonist potency, S1P4; conditions: agonist mode, aequorin luminescence
T4 sequence (O95977 1-384): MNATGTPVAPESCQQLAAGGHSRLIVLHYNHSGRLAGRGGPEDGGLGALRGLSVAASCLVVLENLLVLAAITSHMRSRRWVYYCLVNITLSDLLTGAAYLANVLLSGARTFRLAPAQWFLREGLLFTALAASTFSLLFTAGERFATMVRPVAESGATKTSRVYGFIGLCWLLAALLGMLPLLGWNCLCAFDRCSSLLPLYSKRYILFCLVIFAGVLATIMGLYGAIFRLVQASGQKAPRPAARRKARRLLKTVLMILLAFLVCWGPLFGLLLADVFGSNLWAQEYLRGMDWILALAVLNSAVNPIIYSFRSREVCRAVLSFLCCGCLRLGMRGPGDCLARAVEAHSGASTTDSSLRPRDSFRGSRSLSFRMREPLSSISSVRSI
Summary of the method: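 Cells loaded overnight at RT with 5 μM coelenterazine h in DMEM/HAM's F12 with HEPES plus 0.1% fatty acid-free BSA, then injected onto compounds; agonist-induced calcium luminescence recorded for 90 s and integrated. Signal normalised to digitonin (100 μM) or ATP (20 μM) wells, S1P as reference agonist; sigmoidal nonlinear regression.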

Structure (SMILES)	EC50 [1]	EC50 [2]	EC50 [3]	EC50 (S1P4)
O=C(O)CCN1CC2(Cc3ccc(OCc4ccccc4)cc3C2)C1 [Example 6, 3-(5′-(benzyloxy)-1′,3′-dihydrospiro[azetidine-3,2′-inden]-1-yl)propanoic acid hydrochloride]	1 to 10 µM	> 1 µM	> 1 µM	< 1 µM
CCc1cccc(Cl)c1COc1ccc2c(c1)CC1(C2)CN(CCC(=O)O)C1 [Example 7, 3-(5′-((2-chloro-6-ethylbenzyl)oxy)-1′,3′-dihydrospiro[azetidine-3,2′-inden]-1-yl)propanoic acid hydrochloride]	≤ 0.01 µM	> 1 µM	> 1 µM	< 1 µM
O=C(O)CN1CC2(Cc3ccc(OCc4ccccc4)cc3C2)C1 [Example 8, 2-(5′-(benzyloxy)-1′,3′-dihydrospiro[azetidine-3,2′-inden]-1-yl)acetic acid]	0.1 to 1 µM	> 1 µM	> 1 µM	< 1 µM
O=C(O)CN1CC2(Cc3ccc(OCc4ccc(Cl)cc4)cc3C2)C1 [Example 11, 2-(5′-((4-chlorobenzyl)oxy)-1′,3′-dihydrospiro[azetidine-3,2′-inden]-1-yl)acetic acid]	1 to 10 µM	> 1 µM	> 1 µM	< 1 µM
O=C(O)CN1CC2(Cc3ccc(OCc4cc(F)cc(F)c4)cc3C2)C1 [Example 14, 2-(5′-((3,5-difluorobenzyl)oxy)-1′,3′-dihydrospiro[azetidine-3,2′-inden]-1-yl)acetic acid]	0.01 to 0.1 µM	> 1 µM	> 1 µM	< 1 µM
O=C(O)CN1CC2(Cc3ccc(OCc4c(Cl)cccc4C4CC4)cc3C2)C1 [Example 15, 2-(5′-((2-chloro-6-cyclopropylbenzyl)oxy)-1′,3′-dihydrospiro[azetidine-3,2′-inden]-1-yl)acetic acid]	≤ 0.01 µM	> 1 µM	> 1 µM	< 1 µM
O=C(O)CN1CC2(Cc3ccc(OCc4cccc(Cl)c4)cc3C2)C1 [Example 16, 2-(5′-((3-chlorobenzyl)oxy)-1′,3′-dihydrospiro[azetidine-3,2′-inden]-1-yl)acetic acid compound with acetic acid (1:1)]	≤ 0.01 µM	> 1 µM	> 1 µM	< 1 µM
O=C(O)CN1CC2(Cc3ccc(OCc4cc(Cl)ccc4Cl)cc3C2)C1 [Example 23, 2,2,2-trifluoroacetic acid compound with 2-(5′-((2,5-dichlorobenzyl)oxy)-1′,3′-dihydrospiro[azetidine-3,2′-inden]-1-yl)acetic acid (1:1)]	≤ 0.01 µM	> 1 µM	> 1 µM	< 1 µM
CCc1cccc(Cl)c1COc1ccc2c(c1)CC1(C2)CN(CC(C)CC(=O)O)C1 (centres unmarked) [Example 64, 4-(5′-((2-chloro-6-ethylbenzyl)oxy)-1′,3′-dihydrospiro[azetidine-3,2′-inden]-1-yl)-3-methylbutanoic acid]	≤ 0.01 µM	–	> 1 µM	< 1 µM
O=C(O)CN1CC2(Cc3ccc(C#Cc4ccc(Cl)cc4)cc3O2)C1 [Example 149, 2-(6′-((4-chlorophenyl)ethynyl)-3′H-spiro[azetidine-3,2′-benzofuran]-1-yl)acetic acid]	1 to 10 µM	> 1 µM	–	> 1 µM
O=C(O)CN1CC2(Cc3ccc(C#CC4CCCCC4)cc3O2)C1 [Example 150, 2-(6′-(cyclohexylethynyl)-3′H-spiro[azetidine-3,2′-benzofuran]-1-yl)acetic acid]	≤ 0.01 µM	> 1 µM	–	< 1 µM
O=C(O)CN1CC2(Cc3ccc(C#Cc4ccccc4)cc3O2)C1 [Example 151, 2-(6′-(phenylethynyl)-3′H-spiro[azetidine-3,2′-benzofuran]-1-yl)acetic acid]	≤ 0.01 µM	> 1 µM	–	< 1 µM
O=C(O)CN1CC2(Cc3ccc(C#Cc4cccc(Cl)c4)cc3O2)C1 [Example 152, 2-(6′-((3-chlorophenyl)ethynyl)-3′H-spiro[azetidine-3,2′-benzofuran]-1-yl)acetic acid]	≤ 0.01 µM	> 1 µM	–	< 1 µM
O=C(O)CN1CC2(Cc3ccc(C#Cc4ccccc4Cl)cc3O2)C1 [Example 153, 2-(6′-((2-chlorophenyl)ethynyl)-3′H-spiro[azetidine-3,2′-benzofuran]-1-yl)acetic acid]	≤ 0.01 µM	> 1 µM	–	< 1 µM
CCOc1ccc(C#Cc2ccc3c(c2)OC2(C3)CN(CC(=O)O)C2)cc1 [Example 154, 2-(6′-((4-ethoxyphenyl)ethynyl)-3′H-spiro[azetidine-3,2′-benzofuran]-1-yl)acetic acid]	0.01 to 0.1 µM	< 1 µM	–	> 1 µM
CC1CCC(C#Cc2ccc3c(c2)OC2(C3)CN(CC(=O)O)C2)CC1 (centres unmarked) [Example 155, 2-(6′-((4-methylcyclohexyl)ethynyl)-3′H-spiro[azetidine-3,2′-benzofuran]-1-yl)acetic acid]	0.1 to 1 µM	> 1 µM	–	< 1 µM
CCc1cccc(Cl)c1COc1ccc2c(c1)OC1(C2)CN(CC2(C(=O)O)CC2)C1 [Example 156, 1-((6′-((2-chloro-6-ethylbenzyl)oxy)-3′H-spiro[azetidine-3,2′-benzofuran]-1-yl)methyl)cyclopropanecarboxylic acid]	≤ 0.01 µM	> 1 µM	–	< 1 µM
CCc1cccc(Cl)c1COc1ccc2c(c1)OC1(C2)CN(CC(C)CC(=O)O)C1 (centres unmarked) [Example 157, 4-(6′-((2-chloro-6-ethylbenzyl)oxy)-3′H-spiro[azetidine-3,2′-benzofuran]-1-yl)-3-methylbutanoic acid]	≤ 0.01 µM	> 1 µM	–	< 1 µM
CCc1cccc(Cl)c1COc1ccc2c(c1)OC1(C2)CN(CC(=O)O)C1 [Example 158, 2-(6′-((2-chloro-6-ethylbenzyl)oxy)-3′H-spiro[azetidine-3,2′-benzofuran]-1-yl)acetic acid]	≤ 0.01 µM	< 1 µM	–	< 1 µM
